Test results reported in patent US8980571B2, “Method of identifying a candidate compound which may inhibit α9-nAchR overexpression or estrogen receptor-dependent transcription in nicotine-derived-compound-induced breast cancer cells” (Taipei Medical University, priority 2011, dated 2015).

Key:
ERK1/2 = test: kinase competition assay, p-ERK1/2 immunoblotting in MCF-7 cells; format: cell-based, human; details: 25 μM pretreatment 30 min, then E2 10 nM 30 min
Description: After treatment, the cells were harvested for immunoblotting analysis. The p-ERα, total ER-α, and MAPK kinase proteins levels were detected by immunoblotting analysis.
For the kinase competition assays, the cells were treated with either 10 μM Ly294002, 25 μM PD98059, or 25 μM SP600125 (all from Tocris Cookson Inc., Ellisville, USA) before the treatment with nicotine or E2. All of the cell lines were grown in phenol red-free DMEM for 7 days before the experiments (Lewis, J. S., Thomas, T. J., Pestell, R. G., Albanese, C., Gallo, M. A., and Thomas, T. 2005. Differential effects of 16alpha-hydroxyestrone and 2-methoxyestradiol on cyclin D1 involving the transcription factor ATF-2 in MCF-7 breast cancer cells. J Mol Endocrinol 34:91-105). The DMEM medium used for these experiments contained 10% FBS that had been pretreated with dextran-coated charcoal (0.5% Norit A and 0.05% Dextran T-70) to avoid the effects of serum-derived estrogenic compounds.
Cell extracts were prepared as previously in Ho, Y. S., Lai, C. S., Liu, H. I., Ho, S. Y., Tai, C., Pan, M. H., and Wang, Y. J. 2007. Dihydrolipoic acid inhibits skin tumor promotion through anti-inflammation and anti-oxidation. Biochem Pharmacol 73:1786-1795. Fifty micrograms of protein from each sample were resolved by 12% SDS-polyacrylamide gel electrophoresis, transferred to PVDF and analyzed by western blotting. […]

α9-nAChR = α9-nAChR mRNA and protein expression by RT-PCR and immunoblotting in MCF-7 cells; format: cell-based, human; details: nicotine 10 μM, 6 h post-treatment
Description: After treatment, the cells were harvested, and α9-nAChR mRNA and protein expression levels were determined by RT-PCR and immunoblotting analyses.
Primers specific for the α9-nAChR subunit (forward: 5′-[sequence]-3 (SEQ ID NO:18)′ and reverse: 5′-[sequence]-3 (SEQ ID NO:19)′) were synthesized by MB Mission BioTech (Taipei, Taiwan). The PCR amplicons were analyzed in 1.2% agarose gels (Amresco, Inc, Solon, Ohio, USA) that were stained with ethidium bromide. […] The α9-nAChR mRNA fluorescence intensity was measured and normalized to GUS expression levels using the built-in Roche LightCycler software (version 4).

α9-nAChR promoter = test: luciferase activity assay, pGL3(α9-nAChR) promoter constructs in MCF-7 cells; format: cell-based, human
Description: (§1) Cell lysates were harvested, and relative firefly luciferase activities were measured and normalized to renilla luciferase activities in the same cell lysates. […] The luciferase activity was assayed and normalized to the pRL-TK expression as described above. […] The data were analyzed using nonparametric tests; all P-values are two-sided.
All of the α9-nAChR promoter-luciferase gene fusions were constructed using a pGL3-Basic vector (Promega), and suitable α9 promoter fragments were introduced into the polylinker region of the vector, upstream of the luciferase gene. These constructs were defined as pGL3(α9-nAChR). The fragments were generated using restriction enzymes and were either cloned directly into a pGL3-Basic vector or first subcloned in a pBluescript vector and then transferred into a pGL3-Basic vector.
MCF-7 cells were plated in six-well plates and incubated overnight. The following day, the cells were transiently cotransfected with 2 μg of pGL3 (α9-nAChR) promoter plasmid and 500 ng of RLTK plasmid (Promega, Madison, Wis.) using a MP-100 microporator (Digital Bio, Seoul, Korea) according to the manufacturer's instructions. […] Twenty-four hours later, the cells were lysed with 19 Reporter Lysis Buffer (Promega, Madison, Wis.) and stored at −20° C. overnight. Luciferase activity was then determined by mixing 50 µl of the cell lysate and 50 μl of the Luciferase Assay Reagent (Promega). The total luciferase light units were quantified using a HIDEX Chameleon Microplate Reader. The relative luciferase activity was normalized to that of renilla luciferase in the same cell lysates. Each luciferase assay experiment was performed three times. In this study, the luciferase activity observed in cells transfected with the empty vector was defined as a one-fold change (i.e., basal level).
To more precisely define the regulatory elements that are required by the α9-nAChR promoter for ER-induced transcriptional activation, transient-transfection experiments were conducted using a series of 5′ promoter deletion constructs in pGL3 vectors that were transfected into MCF-7 cells. […]

[1] = cited from earlier work
AP1 DNA-binding sites = details: nicotine 0.1-10 μM, 6 h, pGL3(AP1)5, MCF-7
Description: as §1
MCF-7 cells were plated in six-well plates and incubated overnight. The following day, the cells were transiently cotransfected with 2 μg of pGL3 (α9-nAChR) promoter plasmid and 500 ng of RLTK plasmid (Promega, Madison, Wis.) using a MP-100 microporator (Digital Bio, Seoul, Korea) according to the manufacturer's instructions. […] Twenty-four hours later, the cells were lysed with 19 Reporter Lysis Buffer (Promega, Madison, Wis.) and stored at −20° C. overnight. Luciferase activity was then determined by mixing 50 µl of the cell lysate and 50 μl of the Luciferase Assay Reagent (Promega). The total luciferase light units were quantified using a HIDEX Chameleon Microplate Reader. The relative luciferase activity was normalized to that of renilla luciferase in the same cell lysates. Each luciferase assay experiment was performed three times. In this study, the luciferase activity observed in cells transfected with the empty vector was defined as a one-fold change (i.e., basal level). […]

p-Akt (Ser473) = test: p-Akt immunoblotting analysis in MCF-7 cells; format: cell-based, human
Description: Both p-AKT and total (T)-AKT protein expression were detected by immunoblotting analysis. The membrane was then re-probed with a GAPDH antibody to ensure equal protein loading.
Both p-AKT and T-AKT protein expression were detected by immunoblotting analysis. The membrane was then re-probed with a GAPDH antibody to ensure equal protein loading.
Fifty micrograms of protein from each sample were resolved by 12% SDS-polyacrylamide gel electrophoresis, transferred to PVDF and analyzed by western blotting. The antibodies employed for the western blotting analysis were purchased from the following vendors: anti-Akt, anti-JNK, anti-phospho JNK, anti-estrogen receptor a (anti-ERα), anti-c-Fos, anti-ERK1/2, anti-phospho ERK1/2, and protein A/G agarose beads were purchased from Santa Cruz Biotechnology (Santa Cruz, Calif., USA); anti-GAPDH, anti-α9-nAChR, and anti-phospho ERα (Ser^167) antibodies were obtained from ABcam (Cambridge, UK); anti-phospho Akt (Ser^473, Thr^308), anti-phospho c-Jun (Ser^73), anti-phospho ERα (Ser^118), and anti-phospho ERα (Ser^104/106) antibodies were purchased from Cell Signaling Technology (Danvers, Mass.). Immunodetection was performed by probing membranes with the appropriate dilutions of specific primary antibodies at room temperature for 2 h. The membranes were then incubated at room temperature for 1 h with either alkaline phosphatase-coupled anti-mouse or anti-rabbit secondary antibodies that were purchased from Santa Cruz Biotechnology. The specific protein complexes were identified by incubating the membranes with colorigenic substrates (nitroblue tetrazolium and 5-bromo-4-chloro-3indolyl-phosphate; KPL, Inc., Gaithersburg, Md., USA). In each experiment, the membranes were also probed with an anti-GAPDH antibody as a protein loading control.

Row | SMILES | effect on E2-induced increase in p-ERK1/2 protein levels (ERK1/2) | α9-nAChR mRNA and protein expression levels (α9-nAChR) | induced responsiveness of promoter with positions -995 to -260 deleted (α9-nAChR promoter; E2 10 nM or nicotine 10 μM) | nicotine-induced luciferase activity with promoter positions -41 to -1 deleted (α9-nAChR promoter; nicotine 10 μM) | induction of α9-nAChR promoter activity (luciferase), full-length construct (α9-nAChR promoter; nicotine 10 μM, 24 h, empty vector = one-fold) | nicotine absorbed systemically while smoking a cigarette ([1]; in vivo) | nicotine concentration in the gastric juice ([1]; in vivo) | nicotine concentration in the plasma ([1]; in vivo) | nicotine concentration in the saliva ([1]; in vivo) | share of inhaled nicotine absorbed by the body ([1]; studies using 14C-nicotine) | AP1-linked luciferase activity (AP1 DNA-binding sites) | effect of combined treatment on E2-induced Akt (Ser473) phosphorylation (p-Akt (Ser473); nicotine 5 μM + E2 5 nM, 15 min, MCF-7) | time to significantly increased p-Akt (Ser473) expression (p-Akt (Ser473); nicotine 10 μM, MCF-7) | p-Akt (Ser473) expression for the duration of the experiment (p-Akt (Ser473); nicotine 10 μM, MCF-7, time course) | minimum concentration required for p-Akt (Ser473) induction (p-Akt (Ser473); within 15 min, MCF-7)
1 | COc1cccc(-c2cc(=O)c3ccccc3o2)c1N [PD98059] | almost completely abolished |  |  |  |  |  |  |  |  |  |  |  |  |  | 
2 | CN1CCCC1c1cccnc1 (stereo not drawn) [nicotine] |  | significantly induced | preserved | abolished | greater than fourfold | roughly 1.0 mg | > 800 ng/mL | approximately 15 ng/ml | > 1300 ng/mL | 80-90% | increased the AP1-linked luciferase activity in a dose-dependent manner | enhanced | ≤ 10 min | persistent increase | 5 µM
